The values that follow are results of earlier work, collected in PubChem BioAssay AID1259409 (Chemical Carcinogenesis Research Information System (CCRIS), 2018).

“And” between values parts separate entries of the source, which are not always exact repeats. Equal values may be shown once. Where a SMILES comes first, the peptide text is derived from it.

The series relates to rodent chemically induced tumor inhibition, incidence and multiplicity. Kind of series: CCRIS tumor inhibitor studies.

On to `Cc1c2ccncc2c(C)c2c1[nH]c1ccccc12`, for which the “tumour outcome (control, treated, inhibition, significance)” value was 79%, 100%, -27%, not calculated (Carcinogen: 7,12-DIMETHYLBENZ[A]ANTHRACENE, 57-97-6, Dose [Inhibitor]: 0, 4.1 NMOL IN 0.2 ML ACETONE APPLIED 5 MIN PRIOR TO CARCINOGEN (STUDY DURATION: 21 WK), Route [Inhibitor]: DERMAL, Species: MOUSE, Strain/Sex: SENCAR/FEMALE, Target Tissue: Type of Lesion: SKIN: PAPILLOMA, Dose [Carcinogen]: 10 NMOL IN 0.2 ML ACETONE ONCE, Promoter: 12-O-TETRADECANOYLPHORBOL-13-ACETATE, 16561-29-8); 79%, 87%, -10%, not calculated (Carcinogen: 7,12-DIMETHYLBENZ[A]ANTHRACENE, 57-97-6, Dose [Inhibitor]: 0, 41 NMOL IN 0.2 ML ACETONE APPLIED 5 MIN PRIOR TO CARCINOGEN (STUDY DURATION: 21 WK), Route [Inhibitor]: DERMAL, Species: MOUSE, Strain/Sex: SENCAR/FEMALE, Target Tissue: Type of Lesion: SKIN: PAPILLOMA, Dose [Carcinogen]: 10 NMOL IN 0.2 ML ACETONE ONCE, Promoter: 12-O-TETRADECANOYLPHORBOL-13-ACETATE, 16561-29-8); 79%, 47%, 41%, not calculated (Carcinogen: 7,12-DIMETHYLBENZ[A]ANTHRACENE, 57-97-6, Dose [Inhibitor]: 0, 410 NMOL IN 0.2 ML ACETONE APPLIED 5 MIN PRIOR TO CARCINOGEN (STUDY DURATION: 21 WK), Route [Inhibitor]: DERMAL, Species: MOUSE, Strain/Sex: SENCAR/FEMALE, Target Tissue: Type of Lesion: SKIN: PAPILLOMA, Dose [Carcinogen]: 10 NMOL IN 0.2 ML ACETONE ONCE, Promoter: 12-O-TETRADECANOYLPHORBOL-13-ACETATE, 16561-29-8); 97%, 100%, -3%, not calculated (Carcinogen: 7,14-DIMETHYLBENZO[A,H]ANTHRACENE, 35335-07-0, Dose [Inhibitor]: 0, 4.1 NMOL IN 0.2 ML ACETONE APPLIED 5 MIN PRIOR TO CARCINOGEN (STUDY DURATION: 21 WK), Route [Inhibitor]: DERMAL, Species: MOUSE, Strain/Sex: SENCAR/FEMALE, Target Tissue: Type of Lesion: SKIN: PAPILLOMA, Dose [Carcinogen]: 47.5 NMOL IN 0.2 ML ACETONE ONCE, Promoter: 12-O-TETRADECANOYLPHORBOL-13-ACETATE, 16561-29-8); 97%, 93%, 4%, not calculated (Carcinogen: 7,14-DIMETHYLBENZO[A,H]ANTHRACENE, 35335-07-0, Dose [Inhibitor]: 0, 41 NMOL IN 0.2 ML ACETONE APPLIED 5 MIN PRIOR TO CARCINOGEN (STUDY DURATION: 21 WK), Route [Inhibitor]: DERMAL, Species: MOUSE, Strain/Sex: SENCAR/FEMALE, Target Tissue: Type of Lesion: SKIN: PAPILLOMA, Dose [Carcinogen]: 47.5 NMOL IN 0.2 ML ACETONE ONCE, Promoter: 12-O-TETRADECANOYLPHORBOL-13-ACETATE, 16561-29-8); 97%, 90%, 7%, not calculated (Carcinogen: 7,14-DIMETHYLBENZO[A,H]ANTHRACENE, 35335-07-0, Dose [Inhibitor]: 0, 410 NMOL IN 0.2 ML ACETONE APPLIED 5 MIN PRIOR TO CARCINOGEN (STUDY DURATION: 21 WK), Route [Inhibitor]: DERMAL, Species: MOUSE, Strain/Sex: SENCAR/FEMALE, Target Tissue: Type of Lesion: SKIN: PAPILLOMA, Dose [Carcinogen]: 47.5 NMOL IN 0.2 ML ACETONE ONCE, Promoter: 12-O-TETRADECANOYLPHORBOL-13-ACETATE, 16561-29-8). Moreover, the “tumour outcome (control, treated, inhibition, significance)” value runs as follows: (Carcinogen: DIBENZO[A,H]ANTHRACENE, 53-70-3, Dose [Inhibitor]: 0, 4.1 NMOL IN 0.2 ML ACETONE APPLIED 5 MIN PRIOR TO CARCINOGEN (STUDY DURATION: 21 WK), Route [Inhibitor]: DERMAL, Species: MOUSE, Strain/Sex: SENCAR/FEMALE, Target Tissue: Type of Lesion: SKIN: PAPILLOMA, Dose [Carcinogen]: 200 NMOL IN 0.2 ML ACETONE ONCE, Promoter: 12-O-TETRADECANOYLPHORBOL-13-ACETATE, 16561-29-8) 100%, 87%, 13%, not calculated; (Carcinogen: DIBENZO[A,H]ANTHRACENE, 53-70-3, Dose [Inhibitor]: 0, 41 NMOL IN 0.2 ML ACETONE APPLIED 5 MIN PRIOR TO CARCINOGEN (STUDY DURATION: 21 WK), Route [Inhibitor]: DERMAL, Species: MOUSE, Strain/Sex: SENCAR/FEMALE, Target Tissue: Type of Lesion: SKIN: PAPILLOMA, Dose [Carcinogen]: 200 NMOL IN 0.2 ML ACETONE ONCE, Promoter: 12-O-TETRADECANOYLPHORBOL-13-ACETATE, 16561-29-8) 100%, 97%, 3%, not calculated; (Carcinogen: DIBENZO[A,H]ANTHRACENE, 53-70-3, Dose [Inhibitor]: 0, 410 NMOL IN 0.2 ML ACETONE APPLIED 5 MIN PRIOR TO CARCINOGEN (STUDY DURATION: 21 WK), Route [Inhibitor]: DERMAL, Species: MOUSE, Strain/Sex: SENCAR/FEMALE, Target Tissue: Type of Lesion: SKIN: PAPILLOMA, Dose [Carcinogen]: 200 NMOL IN 0.2 ML ACETONE ONCE, Promoter: 12-O-TETRADECANOYLPHORBOL-13-ACETATE, 16561-29-8) 100%, 97%, 3%, not calculated.
With `O=c1cc(-c2ccc(O)cc2)oc2cc(O)cc(O)c12`, the “tumour outcome (control, treated, inhibition, significance)” value was 92%, 87%, 5%, not significant (Carcinogen: 7,12-DIMETHYLBENZ[A]ANTHRACENE, 57-97-6, Dose [Inhibitor]: 0, 5 UMOL IN 0.2 ML ACETONE/DMSO (9:1) 2/WK FOR 20 WK APPLIED 30 MIN PRIOR TO EACH PROMOTER DOSE (STUDY DURATION: 30 WK), Route [Inhibitor]: DERMAL, Species: MOUSE, Strain/Sex: SENCAR/FEMALE, Target Tissue: Type of Lesion: SKIN: PAPILLOMA, Dose [Carcinogen]: 10 NMOL IN 0.2 ML ACETONE ONCE, Promoter: 12-O-TETRADECANOYLPHORBOL-13-ACETATE, 16561-29-8); 81%, 67%, 17%, not significant (Carcinogen: UV-B IRRADIATION, Dose [Inhibitor]: 0, 5 UMOL IN 0.2 ML DMSO:ACETONE (1:9) 2.5-3 HR PRIOR TO EACH UV-B EXPOSURE (STUDY DURATION: 55 WK), Route [Inhibitor]: DERMAL, Species: MOUSE, Strain/Sex: SKH-1/FEMALE, Target Tissue: Type of Lesion: SKIN: SQUAMOUS CELL CARCINOMA, Dose [Carcinogen]: 745 MJ/CM2 5 D/WK FOR 11 WK, Promoter: NONE USED); 81%, 39%, 52%, not calculated (Carcinogen: UV-B IRRADIATION, Dose [Inhibitor]: 0, 10 UMOL IN 0.2 ML DMSO:ACETONE (1:9) 2.5-3 HR PRIOR TO EACH UV-B EXPOSURE (STUDY DURATION: 55 WK), Route [Inhibitor]: DERMAL, Species: MOUSE, Strain/Sex: SKH-1/FEMALE, Target Tissue: Type of Lesion: SKIN: SQUAMOUS CELL CARCINOMA, Dose [Carcinogen]: 745 MJ/CM2 5 D/WK FOR 11 WK, Promoter: NONE USED).
Turning to `O=C(CCCN=C=S)c1cccnc1`, the “tumour outcome (control, treated, inhibition, significance)” value (Carcinogen: 4-(METHYLNITROSAMINO)-1-(3-PYRIDYL)-1-BUTANONE, 64091-91-4, Dose [Inhibitor]: 0, 5 UMOL 1/D FOR 4 D ADMINISTERED PRIOR TO CARCINOGEN DOSE (STUDY DURATION: 116 D), Route [Inhibitor]: GAVAGE, Species: MOUSE, Strain/Sex: STRAIN-A, Target Tissue: Type of Lesion: LUNG: ADENOMA, Dose [Carcinogen]: 10 UMOL IN SALINE ADMINISTERED 2 HR POST LAST AGENT DOSE, Promoter: NONE USED) was 100%, 96%, 4%, not significant and the “tumour outcome (control, treated, inhibition, significance)” value (Carcinogen: 4-(N-NITROSOMETHYLAMINO)-1-(3-PYRIDYL)-1-BUTANONE, 64091-91-4, Dose [Inhibitor]: 0, 5 UMOL/D FOR 4 CONSECUTIVE DAYS (STUDY DURATION: 16.5 WK), Route [Inhibitor]: GAVAGE, Species: MOUSE, Strain/Sex: STRAIN-A/FEMALE, Target Tissue: Type of Lesion: LUNG: ADENOMA, Dose [Carcinogen]: 10 UMOL ONCE 2 HR POST LAST AGENT DOSE, Promoter: NONE USED) is recorded as 100%, 96%, 4%, not calculated.
In the case of `CC(C)(C)c1cc(O)c(O)c(C(C)(C)C)c1`, where the note is “Carcinogen: BENZO[A]PYRENE, 50-32-8, Dose [Inhibitor]: 0.03 MMOL/G OF DIET DAILY STARTING 7 D BEFORE AND CONTINUING THROUGH 3 D AFTER CARCINOGEN TREATMENT FOLLOWED BY OBSERVAT, Route [Inhibitor]: ORAL, Species: MOUSE, Strain/Sex: ICR/FEMALE, Target Tissue: Type of Lesion: FORESTOMACH: NEOPLASM, Dose [Carcinogen]: 1 MG IN 0.2 ML CORN OIL 2/WK FOR 4 WK, Promoter: NONE USED”, the “tumour outcome (control, treated, inhibition, significance)” value is 100%, 75%, 25%, p<0.05 and 95%, 74%, 22%, not significant.
With `N[C@@H](CCC(=O)O)C(=O)N[C@@H](Cc1c[nH]c2ccccc12)C(=O)O` (H-Glu-Trp-OH), the “tumour outcome (control, treated, inhibition, significance)” value (Carcinogen: NONE, Dose [Inhibitor]: 5 UG 1X/D 5 D/WK FOR 12 MONTHS (STUDY DURATION: 1200 D), Route [Inhibitor]: SUBCUTANEOUS, Species: RAT, Strain/Sex: LIO/FEMALE, Target Tissue: Type of Lesion: TUMORS) is recorded as 12/31 (38.7%), 10/40 (25.0%), 35%, not significant.
